# In ChEMBL document CHEMBL1201862, “PubChem BioAssay data set” (2004):
#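 Compound exposure: 48 hours, 5 concentrations, 96-well plates. Here, GI50 denotes the concentration required for 50% inhibition of growth.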 Active and inactive are the calls of the source. Rule as the data show it: active = GI50 up to about 1.1 µM and inactive = higher.
# Key:
# Assay in all cases: inhibition of tumour cell growth, NCI panel, 48 h
# DMS-114 = tested on: DMS-114
# SK-OV-3 = tested on: SK-OV-3
# HOP-62 = tested on: HOP-62
# SF-539 = tested on: SF-539
# SK-MEL-5 = tested on: SK-MEL-5
# NCI/ADR-RES = tested on: NCI/ADR-RES
# HOP-92 = tested on: HOP-92
# OVCAR-4 = tested on: OVCAR-4
# HT-29 = tested on: HT-29
# SF-295 = tested on: SF-295
# A498 = tested on: A498
# K562 = tested on: K562
# DMS-273 = tested on: DMS-273
# OVCAR-8 = tested on: OVCAR-8
# SK-MEL-2 = tested on: SK-MEL-2
# MOLT-4 = tested on: MOLT-4
# UACC-257 = tested on: UACC-257
# IGROV-1 = tested on: IGROV-1
# KM12 = tested on: KM12
# Malme-3M = tested on: Malme-3M
# XF498 = tested on: XF498
# OVCAR-5 = tested on: OVCAR-5
# A549 = tested on: A549
# EKVX = tested on: EKVX
# HCT-15 = tested on: HCT-15
# CAKI-1 = tested on: CAKI-1
# LOX IMVI = tested on: LOX IMVI
# MCF7 = tested on: MCF7
# SF-268 = tested on: SF-268
# HOP-18 = tested on: HOP-18
# SK-MEL-28 = tested on: SK-MEL-28
# NCI-H522 = tested on: NCI-H522
# RPMI-8226 = tested on: RPMI-8226
# OVCAR-3 = tested on: OVCAR-3
# NCI-H460 = tested on: NCI-H460
# M19-MEL = tested on: M19-MEL
# RXF 393 = tested on: RXF 393
# COLO 205 = tested on: COLO 205
# SW-620 = tested on: SW-620
# SN12C = tested on: SN12C
# SNB-78 = tested on: SNB-78
# DLD-1 = tested on: DLD-1
# UACC-62 = tested on: UACC-62
# SNB-19 = tested on: SNB-19
# CCRF-CEM = tested on: CCRF-CEM
# SNB-75 = tested on: SNB-75
# KM-20L2 = tested on: KM-20L2
# HCC 2998 = tested on: HCC 2998
# NCI-H226 = tested on: NCI-H226
# UO-31 = tested on: UO-31
# HCT-116 = tested on: HCT-116
# NCI-H23 = tested on: NCI-H23
# U-251 = tested on: U-251
structure (smiles),measurement,setting,value
CN(C)/N=N/c1ccc([N+](=O)[O-])cc1C(N)=O,GI50,DMS-114,> 100 µM (inactive)
same,GI50,SK-OV-3,> 100 µM (inactive)
same,GI50,HOP-62,> 90.4 µM (inactive)
same,GI50,SF-539,> 100 µM (inactive)
same,GI50,SK-MEL-5,> 100 µM (inactive)
same,GI50,NCI/ADR-RES,> 100 µM (inactive)
same,GI50,HOP-92,> 100 µM (inactive)
same,GI50,OVCAR-4,> 100 µM (inactive)
same,GI50,HT-29,> 100 µM (inactive)
same,GI50,SF-295,> 100 µM (inactive)
same,GI50,A498,> 80.9 µM (inactive)
same,GI50,K562,> 100 µM (inactive)
same,GI50,DMS-273,> 100 µM (inactive)
same,GI50,OVCAR-8,> 100 µM (inactive)
same,GI50,SK-MEL-2,> 100 µM (inactive)
same,GI50,MOLT-4,> 79.6 µM (inactive)
same,GI50,UACC-257,> 100 µM (inactive)
same,GI50,IGROV-1,> 100 µM (inactive)
same,GI50,KM12,> 100 µM (inactive)
same,GI50,Malme-3M,> 100 µM (inactive)
same,GI50,XF498,> 100 µM (inactive)
same,GI50,OVCAR-5,> 100 µM (inactive)
same,GI50,A549,> 100 µM (inactive)
same,GI50,EKVX,> 71.3 µM (inactive)
same,GI50,HCT-15,> 100 µM
same,GI50,CAKI-1,> 100 µM (inactive)
same,GI50,LOX IMVI,> 100 µM (inactive)
same,GI50,MCF7,> 100 µM (inactive)
same,GI50,SF-268,> 100 µM (inactive)
same,GI50,HOP-18,> 100 µM (inactive)
same,GI50,SK-MEL-28,> 100 µM (inactive)
same,GI50,NCI-H522,> 92.7 µM (inactive)
same,GI50,RPMI-8226,> 100 µM (inactive)
same,GI50,OVCAR-3,> 100 µM (inactive)
same,GI50,NCI-H460,> 100 µM (inactive)
same,GI50,M19-MEL,> 100 µM (inactive)
same,GI50,RXF 393,> 100 µM (inactive)
same,GI50,COLO 205,> 100 µM (inactive)
same,GI50,SW-620,> 100 µM (inactive)
same,GI50,SN12C,> 100 µM (inactive)
same,GI50,SNB-78,> 100 µM (inactive)
same,GI50,DLD-1,> 100 µM (inactive)
same,GI50,UACC-62,> 100 µM (inactive)
same,GI50,SNB-19,> 66.5 µM (inactive)
same,GI50,CCRF-CEM,> 100 µM (inactive)
same,GI50,SNB-75,> 100 µM (inactive)
same,GI50,KM-20L2,> 100 µM (inactive)
same,GI50,HCC 2998,> 100 µM (inactive)
same,GI50,NCI-H226,> 100 µM (inactive)
same,GI50,UO-31,> 82 µM (inactive)
same,GI50,HCT-116,> 100 µM (inactive)
same,GI50,NCI-H23,> 100 µM (inactive)
same,GI50,U-251,> 100 µM (inactive)
